From patent publication US20130203662A1, “Mini-Hepcidin Peptides and Methods of Using Thereof” (priority 2008, published 2013)
Bridge positions count the residues as written; N and C are the ends. Square brackets hold non-standard residues; d marks the D form. Ends that are not written are not given here. Peptide text beside a SMILES is read from it. Oic = O=C(O)[C@@H]1C[C@@H]2CCCC[C@@H]2N1; Dip = N[C@H](C(=O)O)C(c1ccccc1)c1ccccc1; 1Nal = N[C@@H](Cc1cccc2ccccc12)C(=O)O

Target: T1, ferroportin fused to green fluorescent protein (ECR293/Fpn-GFP cells) (Mus musculus, UniProt Q9JHI9)
T1 sequence (Q9JHI9 1-570): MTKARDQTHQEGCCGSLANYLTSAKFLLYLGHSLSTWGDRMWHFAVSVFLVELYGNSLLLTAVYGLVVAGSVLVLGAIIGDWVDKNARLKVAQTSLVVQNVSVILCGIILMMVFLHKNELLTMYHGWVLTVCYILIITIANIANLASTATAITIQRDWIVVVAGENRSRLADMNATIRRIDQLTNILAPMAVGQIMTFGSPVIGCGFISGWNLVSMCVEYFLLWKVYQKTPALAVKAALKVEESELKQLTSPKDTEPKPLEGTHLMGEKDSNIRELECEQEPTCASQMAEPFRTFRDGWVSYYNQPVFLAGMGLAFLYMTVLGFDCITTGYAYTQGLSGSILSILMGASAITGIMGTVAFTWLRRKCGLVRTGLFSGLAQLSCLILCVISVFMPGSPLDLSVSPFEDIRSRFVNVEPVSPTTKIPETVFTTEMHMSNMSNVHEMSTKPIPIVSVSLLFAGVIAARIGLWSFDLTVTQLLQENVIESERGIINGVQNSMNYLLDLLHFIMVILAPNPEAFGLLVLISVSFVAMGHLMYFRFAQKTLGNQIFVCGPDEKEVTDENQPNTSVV
Assay: Flow cytometry of ferroportin-GFP internalization and degradation in ECR293/Fpn-GFP cells
Assay type: cell-based
Conditions: concentration eliciting 50% of maximal loss of fluorescence generated by reference Hep25; 24 hours; read-out: EC50 (the source's name)
Description: In vitro activity may be measured by the dose-dependent loss of fluorescence of cells engineered to display ferroportin fused to green fluorescent protein as in Nemeth et al. (2006) Blood 107:328-33. […]
FLOW CYTOMETRY. The activity of peptides of the present invention was measured by flow cytometry as previously described. See Nemeth et al. (2006) Blood 107:328-333, which is herein incorporated by reference. ECR293/Fpn-GFP, a cell line stably transfected with a ponasterone-inducible ferroportin construct tagged at the C-terminus with green fluorescent protein was used. See Nemeth et al. (2004) Science 306:2090-2093, which is herein incorporated by reference. Briefly, the cells were plated on poly-D-lysine coated plates in the presence of 20 μM FAC, with or without 10 μM ponasterone. After 24 hours, ponasterone was washed off, and cells were treated with peptides for 24 hours. Cells were then trypsinized and resuspended at 1×10^6 cells/ml, and the intensity of green fluorescence was analyzed by flow cytometry. […] Cells not induced with ponasterone to express Fpn-GFP were used to establish a gate to exclude background fluorescence. Cells induced with ponasterone, but not treated with any peptides, were used as the positive control. Each peptide was tested over the range of concentrations (0, 0.01, 0.03, 0.1, 0.3, 1, 3 and 10 μM). Each peptide treatment was repeated independently 3 to 6 times.

Row | Compound | DC50 [nM]
1 | HFPICI-NH2 [Hep6] | 1000
2 | HFPIC-NH2 [Hep5] | > 10000
3 | DTHFPISIF-NH2 [Hep9-C7S] | > 10000
4 | CC[C@H](C)[C@H](NC(=O)[C@H](CS)NC(=O)[C@@H](NC(=O)[C@@H]1CCCN1C(=O)[C@H](Cc1cccc2ccccc12)NC(=O)[C@H](Cc1c[nH]cn1)NC(=O)[C@@H](NC(=O)[C@@H](N)CC(=O)O)[C@@H](C)O)[C@@H](C)CC)C(=O)N[C@@H](Cc1ccccc1)C(N)=O [F4 1Nal] (H-DTH[1Nal]PICIF-NH2; N-terminus assumed) | 110
5 | DTHFPIC-NH2 [Hep7] | > 10000

The next lines start with the values.

Row | DC50 [nM] | Compound
6 | 150 | CC[C@H](C)[C@H](NC(=O)[C@H](CS)NC(=O)[C@@H](NC(=O)[C@@H]1CCCN1C(=O)[C@H](Cc1ccccc1)NC(=O)[C@H](Cc1c[nH]cn1)NC(=O)[C@@H](NC(=O)[C@@H](N)CC(=O)O)[C@@H](C)O)[C@@H](C)CC)C(=O)N[C@H](CC(N)=O)Cc1ccccc1 [F9bhPhe]
7 | 700 | CC[C@H](C)[C@H](NC(=O)[C@@H](NC(=O)[C@@H](NC(=O)[C@@H]1CCCN1C(=O)[C@H](Cc1ccccc1)NC(=O)[C@H](Cc1c[nH]cn1)NC(=O)[C@@H](NC(=O)[C@@H](N)CC(=O)O)[C@@H](C)O)[C@@H](C)CC)C(C)(C)S)C(=O)N[C@@H](Cc1ccccc1)C(N)=O [Pen]
8 | 10 | CC[C@H](C)[C@@H]1NC(=O)[C@@H](NC(=O)[C@@H](NC(=O)[C@@H]2CCCN2C(=O)[C@H](Cc2ccccc2)NC(=O)[C@H](Cc2c[nH]cn2)NC(=O)[C@@H](NC(=O)[C@@H](N)CC(=O)O)[C@@H](C)O)[C@@H](C)CC)CSSC[C@@H](C(=O)N[C@@H](CCCCN)C(=O)N[C@H](C(=O)O)[C@@H](C)O)NC(=O)[C@@H]2CSSC[C@@H]3NC(=O)[C@@H]4CSSC[C@H](NC(=O)[C@H](Cc5ccccc5)NC1=O)C(=O)N[C@@H](CSSC[C@H](NC(=O)[C@H](CCCCN)NC(=O)[C@H](CO)NC(=O)[C@H](CCCNC(=N)N)NC(=O)[C@H](Cc1c[nH]cn1)NC3=O)C(=O)NCC(=O)N[C@@H](CCSC)C(=O)N2)C(=O)NCC(=O)N4 [Hep25, reference compound]
9 | 100 | CC[C@H](C)[C@H](NC(=O)[C@H](CS)NC(=O)[C@@H](NC(=O)[C@@H]1CCCN1C(=O)[C@H](Cc1ccccc1)NC(=O)[C@H](Cc1c[nH]cn1)NC(=O)[C@@H](NC(=O)[C@@H](N)CC(=O)O)[C@@H](C)O)[C@@H](C)CC)C(=O)N[C@@H](Cc1ccccc1)C(=O)N1CCC[C@@H]1C(=O)N1CCC[C@H]1C(=O)N[C@@H](CCCCN)C(N)=O [Pr13]
10 | 700 | CC[C@H](C)[C@H](NC(=O)[C@H](CS)NC(=O)[C@@H](NC(=O)[C@@H]1CCCN1C(=O)C[C@H](Cc1ccccc1)NC(=O)[C@H](Cc1c[nH]cn1)NC(=O)[C@@H](NC(=O)[C@@H](N)CC(=O)O)[C@@H](C)O)[C@@H](C)CC)C(=O)N[C@@H](Cc1ccccc1)C(N)=O [F4bhPhe]
11 | 30 | CC[C@H](C)[C@H](NC(=O)[C@H](CS)NC(=O)[C@@H](NC(=O)[C@@H]1C[C@@H]2CCCC[C@@H]2N1C(=O)[C@@H](NC(=O)[C@H](Cc1c[nH]cn1)NC(=O)[C@@H](NC(=O)[C@@H](N)CC(=O)O)[C@@H](C)O)C(c1ccccc1)c1ccccc1)[C@@H](C)CC)C(=O)N[C@@H](Cc1ccccc1)C(N)=O [Pr44] (H-DTH[Dip][Oic]ICIF-NH2; N-terminus assumed)

Same assay, conditions: read-out: EC50; concentration eliciting 50% of maximal loss of fluorescence generated by reference Hep25; 24 hours

Row | Compound | DC50 [nM]
12 | CC[C@H](C)[C@H](NC(=O)[C@@H]1CSSC[C@H](N)C(=O)N[C@@H](Cc2c[nH]cn2)C(=O)N[C@@H](Cc2ccccc2)C(=O)N2CCC[C@H]2C(=O)N[C@@H]([C@@H](C)CC)C(=O)N1)C(=O)N[C@@H](Cc1ccccc1)C(N)=O [Cyc-2] (H-CHFPICIF-NH2; disulfide 1-6) | > 10000
